Calls of active or inactive are those of the source.
Assays:
[1] = target: T1, Calpain-2 catalytic subunit (Sus scrofa, UniProt P43367); experiment: m-calpain protease blockers, concentration series – biochemical, fluorogenic peptide substrate, dose response (AID 1420); assay type: functional
T1 sequence (P43367 whole entry): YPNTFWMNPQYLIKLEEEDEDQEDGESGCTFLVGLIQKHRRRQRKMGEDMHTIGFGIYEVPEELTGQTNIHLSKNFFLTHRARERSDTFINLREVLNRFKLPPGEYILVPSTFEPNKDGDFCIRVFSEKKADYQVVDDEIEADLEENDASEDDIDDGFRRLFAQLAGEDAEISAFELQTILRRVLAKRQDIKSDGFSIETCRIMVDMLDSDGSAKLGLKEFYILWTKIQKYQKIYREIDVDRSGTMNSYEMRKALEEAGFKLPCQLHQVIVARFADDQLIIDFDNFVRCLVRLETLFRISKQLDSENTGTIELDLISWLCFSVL

[2] = target: Melanocortin receptor 4 (Homo sapiens, UniProt P32245); assay type: functional, cell-based;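 further: Cell-based assay with luminescence read-out, confirmatory dose-response testing for agonist activity of biased ligands at MC4R; human U2OS cells with tagged receptor and beta-arrestin; potency of agonists that increase receptor coupling to beta-arrestin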
Chain of Melanocortin receptor 4 (P32245 whole entry): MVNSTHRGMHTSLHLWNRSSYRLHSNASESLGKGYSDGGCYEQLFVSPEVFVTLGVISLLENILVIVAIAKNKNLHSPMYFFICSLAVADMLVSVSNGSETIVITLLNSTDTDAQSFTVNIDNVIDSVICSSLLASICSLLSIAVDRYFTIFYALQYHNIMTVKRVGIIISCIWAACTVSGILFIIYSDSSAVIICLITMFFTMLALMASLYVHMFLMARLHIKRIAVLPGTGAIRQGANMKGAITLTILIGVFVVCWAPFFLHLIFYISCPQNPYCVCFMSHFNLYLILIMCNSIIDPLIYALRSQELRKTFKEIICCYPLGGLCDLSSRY

[3] = target: T2, Caspase-3 (Homo sapiens, UniProt P42574); experiment: SAR Analysis of small molecule inhibitors of Sentrin-specific proteases (SENPs) using a Caspase-3 Selectivity assay. [Related pubchem assays (depositor defined):AID2540, AID2599, AID434973, AID489001]; assay type: functional
T2 sequence (P42574 whole entry): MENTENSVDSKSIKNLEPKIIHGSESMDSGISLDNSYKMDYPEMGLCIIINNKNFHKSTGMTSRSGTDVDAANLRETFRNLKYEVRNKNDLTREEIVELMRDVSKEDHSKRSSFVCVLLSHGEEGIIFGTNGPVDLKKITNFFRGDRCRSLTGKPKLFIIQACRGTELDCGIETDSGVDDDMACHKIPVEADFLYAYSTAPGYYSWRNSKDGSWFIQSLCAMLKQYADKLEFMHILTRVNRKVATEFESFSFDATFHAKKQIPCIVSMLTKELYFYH

[4] = target: T2, Caspase-3; assay type: functional
[5] = target: Protein Rev (Human immunodeficiency virus type 1 group M subtype B (isolate HXB2)(HIV-1), UniProt P04618); experiment: blockers of HIV Rev/RRE RNA complex – biochemical, fluorescence polarization, HIV-1, dose response (AID 434976); parameters: species or system Human immunodeficiency virus 1
Chain of Protein Rev (P04618 whole entry): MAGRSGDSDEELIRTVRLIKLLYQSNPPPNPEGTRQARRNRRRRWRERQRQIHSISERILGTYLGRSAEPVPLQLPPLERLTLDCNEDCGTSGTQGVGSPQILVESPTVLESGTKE

[6] = target: T3, Sentrin-specific protease 7 (Homo sapiens, UniProt Q9BQF6); experiment: inhibition of human SENP7 cleavage activity – biochemical, luminescence, SAR follow-up (AID 504497); assay type: functional
T3 sequence (Q9BQF6 whole entry): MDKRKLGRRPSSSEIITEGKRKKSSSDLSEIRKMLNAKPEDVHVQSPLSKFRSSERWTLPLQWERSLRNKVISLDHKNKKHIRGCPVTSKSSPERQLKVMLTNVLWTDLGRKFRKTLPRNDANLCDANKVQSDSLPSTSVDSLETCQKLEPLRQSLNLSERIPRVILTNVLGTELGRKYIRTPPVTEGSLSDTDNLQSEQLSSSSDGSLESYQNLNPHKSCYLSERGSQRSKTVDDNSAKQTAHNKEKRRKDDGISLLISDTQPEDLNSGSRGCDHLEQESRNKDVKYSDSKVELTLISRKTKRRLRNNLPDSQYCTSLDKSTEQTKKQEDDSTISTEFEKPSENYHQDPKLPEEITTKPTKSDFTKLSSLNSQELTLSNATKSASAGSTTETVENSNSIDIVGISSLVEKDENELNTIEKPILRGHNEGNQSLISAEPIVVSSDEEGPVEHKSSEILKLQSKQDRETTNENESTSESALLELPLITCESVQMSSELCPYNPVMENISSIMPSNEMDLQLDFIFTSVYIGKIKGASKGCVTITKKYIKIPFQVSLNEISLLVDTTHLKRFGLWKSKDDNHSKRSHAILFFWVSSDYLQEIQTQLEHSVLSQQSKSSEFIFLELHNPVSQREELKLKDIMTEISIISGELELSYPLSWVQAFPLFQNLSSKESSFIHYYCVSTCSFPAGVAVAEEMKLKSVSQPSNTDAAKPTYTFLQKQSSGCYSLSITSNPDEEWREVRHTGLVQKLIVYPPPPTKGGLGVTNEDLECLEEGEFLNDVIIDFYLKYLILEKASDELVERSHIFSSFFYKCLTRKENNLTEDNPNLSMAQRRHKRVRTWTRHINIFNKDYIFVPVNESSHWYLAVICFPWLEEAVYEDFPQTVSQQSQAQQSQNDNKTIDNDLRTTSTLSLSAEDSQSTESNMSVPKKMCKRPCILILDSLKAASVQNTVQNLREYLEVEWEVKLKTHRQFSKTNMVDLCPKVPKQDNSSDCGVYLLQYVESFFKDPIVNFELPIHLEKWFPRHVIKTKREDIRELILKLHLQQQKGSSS

[7] = target: Polyadenylate-binding protein 1 (Homo sapiens, UniProt P11940); experiment: MLLE binding blockers, Cy5 peptide tracer – biochemical, fluorescence polarization, Cy5-PAM2 peptide, secondary, miRNA deadenylation inhibitor project, dose response (AID 602260); assay type: functional; settings: read-out: IC50_Mean
Chain of Polyadenylate-binding protein 1 (P11940 whole entry): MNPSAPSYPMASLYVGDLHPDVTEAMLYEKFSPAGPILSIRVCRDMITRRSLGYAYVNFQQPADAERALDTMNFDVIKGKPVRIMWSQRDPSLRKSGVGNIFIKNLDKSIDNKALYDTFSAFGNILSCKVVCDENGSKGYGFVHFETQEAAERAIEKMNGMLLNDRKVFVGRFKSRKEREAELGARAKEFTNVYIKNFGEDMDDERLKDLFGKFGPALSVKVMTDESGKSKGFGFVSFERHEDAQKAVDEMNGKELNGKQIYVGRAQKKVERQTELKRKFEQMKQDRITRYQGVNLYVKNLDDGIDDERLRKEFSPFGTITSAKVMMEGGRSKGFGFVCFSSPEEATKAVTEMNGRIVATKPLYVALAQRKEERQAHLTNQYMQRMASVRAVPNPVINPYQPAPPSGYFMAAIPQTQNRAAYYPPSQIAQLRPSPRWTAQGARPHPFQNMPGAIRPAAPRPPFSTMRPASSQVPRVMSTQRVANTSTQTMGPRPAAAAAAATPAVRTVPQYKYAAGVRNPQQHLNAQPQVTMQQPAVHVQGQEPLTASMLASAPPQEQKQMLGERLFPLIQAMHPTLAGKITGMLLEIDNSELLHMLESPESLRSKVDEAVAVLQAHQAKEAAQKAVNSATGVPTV

[8] = target: Beta-galactosidase (Escherichia coli, UniProt Q8VNN2); experiment: detection-enzyme interference by beta-gal modulators – biochemical, E. coli enzyme, set 3, artefact control for CCR6 antagonist project, dose response (AID 504712); assay type: functional
Chain of Beta-galactosidase (Q8VNN2 whole entry): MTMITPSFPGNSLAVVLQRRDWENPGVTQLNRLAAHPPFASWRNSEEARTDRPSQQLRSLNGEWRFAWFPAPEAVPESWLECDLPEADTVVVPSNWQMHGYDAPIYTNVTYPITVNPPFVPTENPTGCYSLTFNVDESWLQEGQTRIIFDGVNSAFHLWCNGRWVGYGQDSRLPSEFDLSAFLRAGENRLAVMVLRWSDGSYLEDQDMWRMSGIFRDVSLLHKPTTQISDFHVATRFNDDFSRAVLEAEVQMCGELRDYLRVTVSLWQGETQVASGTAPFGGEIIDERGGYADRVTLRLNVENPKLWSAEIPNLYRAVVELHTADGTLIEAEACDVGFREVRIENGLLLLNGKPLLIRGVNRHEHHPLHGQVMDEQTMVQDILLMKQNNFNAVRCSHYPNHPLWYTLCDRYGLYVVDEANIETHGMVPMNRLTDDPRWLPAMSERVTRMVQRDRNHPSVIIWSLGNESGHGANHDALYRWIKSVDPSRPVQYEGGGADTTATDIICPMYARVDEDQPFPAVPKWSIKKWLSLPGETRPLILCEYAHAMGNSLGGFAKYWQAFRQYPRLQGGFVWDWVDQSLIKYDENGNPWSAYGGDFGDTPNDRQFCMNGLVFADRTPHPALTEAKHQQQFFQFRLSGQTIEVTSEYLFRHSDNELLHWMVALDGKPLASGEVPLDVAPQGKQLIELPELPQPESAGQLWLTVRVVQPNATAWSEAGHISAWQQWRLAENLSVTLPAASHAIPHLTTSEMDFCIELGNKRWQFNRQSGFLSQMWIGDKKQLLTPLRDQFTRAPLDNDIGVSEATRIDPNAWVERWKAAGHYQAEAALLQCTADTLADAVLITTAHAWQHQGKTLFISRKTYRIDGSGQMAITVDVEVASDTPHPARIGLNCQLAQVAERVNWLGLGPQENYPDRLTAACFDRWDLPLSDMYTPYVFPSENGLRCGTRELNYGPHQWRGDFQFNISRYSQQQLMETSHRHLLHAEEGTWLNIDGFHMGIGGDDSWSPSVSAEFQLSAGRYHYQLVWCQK

[9] = tested on: INS1; experiment: INS-1E survival protection against cytokine death – cell-based, luminescence, retest, dose response (AID 449756); assay type: functional; settings: Rattus norvegicus;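 further: cell death triggered by IL-1 beta plus TNF-alpha plus IFN-gamma mixture; protective hits raise ATP signal compared with cytokine alone wells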
[10] = target: SUMO-activating enzyme (Homo sapiens, UniProt Q9UBT2); experiment: blockers of SAE1/SAE2–UBC9 SUMO transfer – biochemical, HTRF, uHTS, primary screen (AID 2006); assay type: protein-complex assay
Chain of SUMO-activating enzyme (Q9UBE0 whole entry): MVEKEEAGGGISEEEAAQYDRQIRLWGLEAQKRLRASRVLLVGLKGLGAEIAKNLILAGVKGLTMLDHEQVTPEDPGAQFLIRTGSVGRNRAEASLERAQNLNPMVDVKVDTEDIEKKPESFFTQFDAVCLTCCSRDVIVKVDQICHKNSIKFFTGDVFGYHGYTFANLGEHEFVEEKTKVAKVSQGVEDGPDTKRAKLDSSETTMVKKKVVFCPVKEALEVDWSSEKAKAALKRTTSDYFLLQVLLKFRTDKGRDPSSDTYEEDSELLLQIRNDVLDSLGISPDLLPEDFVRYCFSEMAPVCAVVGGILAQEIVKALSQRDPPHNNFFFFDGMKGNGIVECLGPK
Chain of SUMO-activating enzyme (Q9UBT2 whole entry): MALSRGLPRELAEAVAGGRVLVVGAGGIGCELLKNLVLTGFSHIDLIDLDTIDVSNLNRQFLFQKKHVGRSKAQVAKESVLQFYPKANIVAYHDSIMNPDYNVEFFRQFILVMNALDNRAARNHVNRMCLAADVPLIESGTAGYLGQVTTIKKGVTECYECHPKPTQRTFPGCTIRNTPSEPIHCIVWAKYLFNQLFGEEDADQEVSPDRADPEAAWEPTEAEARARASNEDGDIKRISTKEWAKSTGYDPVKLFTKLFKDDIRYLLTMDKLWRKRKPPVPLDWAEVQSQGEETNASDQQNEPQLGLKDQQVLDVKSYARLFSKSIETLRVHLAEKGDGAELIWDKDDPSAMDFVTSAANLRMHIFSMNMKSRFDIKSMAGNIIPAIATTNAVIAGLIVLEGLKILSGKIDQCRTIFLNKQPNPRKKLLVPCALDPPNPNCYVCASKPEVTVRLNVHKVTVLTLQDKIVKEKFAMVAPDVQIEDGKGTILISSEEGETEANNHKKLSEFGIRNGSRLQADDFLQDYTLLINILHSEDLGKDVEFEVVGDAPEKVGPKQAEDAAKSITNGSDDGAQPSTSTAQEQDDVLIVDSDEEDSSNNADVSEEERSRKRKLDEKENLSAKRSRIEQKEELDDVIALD

[11] = microbe, parasite or virus in culture; assay type: functional; settings: Mycobacterium tuberculosis
[12] = Luminescence Cell-Based Dose Retest to Confirm Inhibitors of Cancer Stem Cells. [Related pubchem assays (depositor defined):AID2717, AID2721]; assay type: functional; settings: Homo sapiens

Cc1cccc(C)c1-n1cccc1/C=C1\SC(=S)N(c2cccc(C(=O)O)c2)C1=O
IC50 [1]: 7.27 µM (not active) | EC50 [2]: > 89.2 µM (inactive)

Oc1ccc(/C=N/Nc2cc(N3CCCC3)nc(N3CCCC3)n2)cc1
IC50 [3]: > 99 µM (inactive) | IC50 [4]: > 100 µM (inactive) | IC50 [5]: 1.36 µM (active) | IC50 [6]: > 99 µM (inactive) | IC50 [7]: > 66 µM (inactive)

COc1ccc(S(=O)(=O)/N=C2\C=C(Nc3ccc(O)cc3)C(=O)c3ccccc32)cc1
IC50 [8]: 43 µM (inactive) | AC50 [9]: 0.592 µM (active)

COc1ccc(/C=N/Nc2cc(N3CCCC3)nc(N3CCCC3)n2)cc1
IC50 [10]: 2.31 µM (active) | CC50 [11]: 20.3 µM (active) | IC50 [4]: > 100 µM (inactive) | AC50 [12]: 3.71 µM (active)

— ChEMBL document CHEMBL1201862, “PubChem BioAssay data set” (2004)
